Experimental findings from patent US20250250265A1, “BENZOTHIAZOLE-PHENYLSULFONYL-PIPERIDINE ANALOGS AS ACTIVATORS OF NACYLPHOSPHATIDYLETHANOLAMINE HYDROLYZING PHOSPHOLIPASE D” (priority 2022, published 2025) are described below.

Molecules are shown by their SMILES. A value given as a limit tells only on which side of the number the result lay.

The first series addresses T1, recombinant mouse NAPE-PLD (Mus musculus, UniProt Q8BH82).
T1 construct: hexahistidine (His6) (C); made in house; host or cells: E. coli
T1 sequence (Q8BH82 1-396): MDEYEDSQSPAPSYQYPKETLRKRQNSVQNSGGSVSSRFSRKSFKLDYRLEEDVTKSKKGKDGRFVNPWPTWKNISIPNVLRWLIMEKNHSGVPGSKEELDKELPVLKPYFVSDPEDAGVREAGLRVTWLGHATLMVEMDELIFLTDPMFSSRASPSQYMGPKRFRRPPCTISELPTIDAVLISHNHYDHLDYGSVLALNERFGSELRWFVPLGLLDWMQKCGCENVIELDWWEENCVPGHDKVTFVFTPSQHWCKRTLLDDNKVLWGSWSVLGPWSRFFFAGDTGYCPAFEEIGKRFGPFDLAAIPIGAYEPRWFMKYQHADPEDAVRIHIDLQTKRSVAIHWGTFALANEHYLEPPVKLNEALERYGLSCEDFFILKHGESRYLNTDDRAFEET
Description: In vitro fluorescence NAPE-PLD activity assay (HTS/CRC) with recombinant mouse NAPE-PLD and PED-A1. In kind it is biochemical. The following applies: Table 1; compound concentration to induce 175% basal activity. The procedure: Using the fluorogenic NAPE substrate, PED-A1, and recombinant mouse NAPE-PLD (rNAPE-PLD), an in vitro high-throughput (HTS) assay was conducted to screen ˜40,000 compounds for their ability to modulate NAPE-PLD activity. The HTS assay enabled the detection of both NAPE-PLD activators and inhibitors. […] Initial structure-activity response studies with the top hits identified benzothiazole phenylsulfonyl-piperidine carboxamide analogs (BT-PSP analogs) as lead compounds for NAPE-PLD activators (Table 1). The lead BT-PSP analog identified, VU534, induces 50% of its activation effect on NAPE-PLD at 270 nM (AC50 270 nM), and induces a maximal effect of 195% of basal NAPE-PLD activity (Table 1).
In vitro fluorescence NAPE-PLD activity assays using recombinant NAPE-PLD and either PED-A1 or flame-NAPE as fluorogenic substrate were performed as previously described except with small modifications as noted below. See Aggarwal et al., J. Biol. Chem. 295(21): 7289-7300 (2020); Zarrow et al., J. Lipid Res. 63(1): 100156 (2022).
For the HTS assays, test compounds were incubated with recombinant enzyme for 1 h prior to adding PED-A1 (final 0.4 μM) mixed with N-palmitoyl-dioleoyl-PE (final 3.6 μM) to adjust for the high sensitivity of the Panoptic instrument (WaveFront Biosciences). Assays used black-wall, clear-bottom, non-sterile, and non-treated 384-well plates (Greiner Bio-One 781906). The assay was read in kinetic fluorescence mode on the Panoptic instrument for 4 min and the slope of the signal from 30-100 s was used for analysis. A total of 39,328 compounds from the Vanderbilt Discovery Collection were tested, each at 10 μM. The tested compounds were chosen to represent a structurally diverse selection from the full library. Each 384-well plate included 320 test compound wells and 64 control wells. Unlike previous pilot screening assays, bithionol (10 μM final) was used in place of lithocholic acid (100 μM final) as the inhibitor control. Before performing high-throughput screening, a checkerboard assay was performed to validate the assay parameters. This yielded a Z′ score of 0.676. Z′ scores were also calculated for each plate during screening, and plates with scores <0.5 were re-run. The average Z′ across all screening plates was 0.52, and the total hit rate was 3.6%. B-scores were calculated from the initial slopes across each plate using WaveGuide software (WaveFront Biosiences). Modulator hits were defined as compounds with absolute B-scores of 3 or higher. The number of compounds in various B-score ranges were as follows: […], 12 compounds; −10 to −5, 221 compounds; −5 to −3, 770 compounds; −3 to 3, 37924 compounds; 3 to 4, 314 compounds; 4 to 6, 70 compounds; 6 to 10, 15 compounds. Activator hits with B-scores of >3 were selected for the replication assay and a selection of analogs of the activators.
Concentration response curve (CRC) experiments used the same assay conditions as the HTS assay, except that graded concentrations of each test compound were used, with total amount of vehicle (DMSO) kept constant. CRC experiments with purified recombinant mouse NAPE-PLD were performed on two separate days, with values from each day normalized to vehicle only controls on same plate, and then all normalized values from both days averaged together. CRC experiments with human NAPE-PLD represent value from only a single day, due to limited amounts of this recombinant enzyme.
Consider `Cc1ccc2sc(NC(=O)C3CCN(S(=O)(=O)c4ccc(F)cc4)CC3)nc2c1C` [VU517], for which the “bAC175” value is 1480 nM.

Still in this series, the particulars now being: Table 1; concentration for 50% maximum activation from basal activity (no activator).
For `Cc1ccc2sc(NC(=O)C3CCN(S(=O)(=O)c4ccc(F)cc4)CC3)nc2c1C` [VU517], the AC50 was 767 nM.

Staying with this series, now noted: Table 1; maximum induced activity compared to basal (100%) activity.
For `Cc1ccc2sc(NC(=O)C3CCN(S(=O)(=O)c4ccc(F)cc4)CC3)nc2c1C` [VU517], the “Max % bA (%)” value is given as 190%.

Staying with this series, now noted: Table 2; maximal induced activity for recombinant NAPE-PLD compared to basal (100%); read-out: Emax (%).
With `Cc1cccc2sc(NC(=O)C3CCN(S(=O)(=O)c4ccc(F)c(Cl)c4)CC3)nc12` [MRJ-058B], the maximal response (Emax) worked out at 180%.

Regarding `Cc1cccc2sc(NC(=O)C3CCN(S(=O)(=O)c4cccnc4)CC3)nc12` [MRJ-058C], the Emax came out at 175%.

On to `Cc1cccc2sc(NC(=O)C3CCN(S(=O)(=O)c4cnn(C)c4)CC3)nc12` [MRJ-058D], for which the Emax is 240%.

`Cc1ccc2nc(NC(=O)C3CCN(S(=O)(=O)c4ccc(F)cc4)CC3)sc2c1` [VU486]: the Emax came out at 190%.

With `Cc1ccc2sc(NC(=O)C3CCN(S(=O)(=O)c4ccc(F)cc4)CC3)nc2c1C` [VU517], the Emax worked out at 210%.

Still in this series, the particulars now being: Table 2; rNAPE-PLD activity assay; read-out: EC50.
With `Cc1cccc2sc(NC(=O)C3CCN(S(=O)(=O)c4ccc(F)c(Cl)c4)CC3)nc12` [MRJ-058B], the EC50 was determined as 4700 nM.

With `Cc1cccc2sc(NC(=O)C3CCN(S(=O)(=O)c4cccnc4)CC3)nc12` [MRJ-058C], the EC50 was 940 nM.

As to `Cc1cccc2sc(NC(=O)C3CCN(S(=O)(=O)c4cnn(C)c4)CC3)nc12` [MRJ-058D], the EC50 worked out at 1500 nM.

Turning to `Cc1ccc2nc(NC(=O)C3CCN(S(=O)(=O)c4ccc(F)cc4)CC3)sc2c1` [VU486], the EC50 stood at 240 nM.

For `Cc1ccc2sc(NC(=O)C3CCN(S(=O)(=O)c4ccc(F)cc4)CC3)nc2c1C` [VU517], the EC50 was determined as 1500 nM.

The series is the same for the next values; noted with them: Table 3; read-out: In vitro EC50.
Take `Cc1ccc2nc(NC(=O)C3CCN(S(=O)(=O)c4ccc(F)cc4)CC3)sc2c1` [VU486]: the EC50 came to 240 nM.

`Cc1ccc2sc(NC(=O)C3CCN(S(=O)(=O)c4ccc(F)cc4)CC3)nc2c1C` [VU517]: the EC50 was determined as 1500 nM.

The series is the same for the next values; noted with them: Table 3; read-out: In vitro Emax (100% activity is baseline activity of vehicle only).
Take `Cc1ccc2nc(NC(=O)C3CCN(S(=O)(=O)c4ccc(F)cc4)CC3)sc2c1` [VU486]: the Emax worked out at 189%.

Take `Cc1ccc2sc(NC(=O)C3CCN(S(=O)(=O)c4ccc(F)cc4)CC3)nc2c1C` [VU517]: the Emax was 213%.

The same series, now with this note: Table 4; maximal efficacy as fold increase in NAPE-PLD activity versus vehicle only.
In the case of `Cc1ccc2nc(NC(=O)C3CCN(S(=O)(=O)c4ccc(F)cc4)CC3)sc2c1` [VU486], the “Emax (95% Cl)” value is 1.8 (1.7-1.9) fold.

For the molecule `Cc1ccc2sc(NC(=O)C3CCN(S(=O)(=O)c4ccc(F)cc4)CC3)nc2c1C` [VU517], the “Emax (95% Cl)” value is given as 2.0 (2.0-2.1) fold.

The target of a further series is T2, Fatty Acid Amide Hydrolase (FAAH) (Homo sapiens, UniProt O00519).
T2 construct: purchased Cayman Chemicals
T2 sequence (O00519 1-579): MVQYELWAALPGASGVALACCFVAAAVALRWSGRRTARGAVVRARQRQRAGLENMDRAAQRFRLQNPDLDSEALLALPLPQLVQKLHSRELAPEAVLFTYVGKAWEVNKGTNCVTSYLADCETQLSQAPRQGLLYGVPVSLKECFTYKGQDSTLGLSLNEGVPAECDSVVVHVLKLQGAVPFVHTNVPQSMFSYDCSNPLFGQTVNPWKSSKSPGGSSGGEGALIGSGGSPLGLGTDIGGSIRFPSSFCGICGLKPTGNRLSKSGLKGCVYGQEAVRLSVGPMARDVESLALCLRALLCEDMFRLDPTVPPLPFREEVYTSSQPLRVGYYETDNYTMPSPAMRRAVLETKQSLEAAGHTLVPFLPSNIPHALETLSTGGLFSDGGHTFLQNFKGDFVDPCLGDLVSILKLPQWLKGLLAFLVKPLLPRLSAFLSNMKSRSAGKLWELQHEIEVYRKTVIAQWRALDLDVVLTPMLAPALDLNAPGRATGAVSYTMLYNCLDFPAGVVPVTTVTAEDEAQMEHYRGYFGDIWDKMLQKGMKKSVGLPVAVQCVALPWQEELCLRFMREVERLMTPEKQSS
Description: FAAH activity assay (Cayman Chemicals). The class given is biochemical. The following applies: 33 μM compound, compared to vehicle (0%). On the procedure: Concentration response curves were plotted for VU534 for the enzymes fatty acid amide hydrolase (FAAH) and soluble epoxide hydrolase (sEH).
The fluorescence interference assay was performed using the same method as the HTS assay, but with BODIPY-FL C5 (Thermo Fisher Scientific) used in place of PED-A1. sEH and FAAH activity assays were performed according to the manufacturer's specifications (Cayman Chemicals).
`Cc1cccc2sc(NC(=O)C3CCN(S(=O)(=O)c4ccc(F)c(Cl)c4)CC3)nc12` [MRJ-058B]: the inhibition at 33 µM was below 15%.

As to `Cc1cccc2sc(NC(=O)C3CCN(S(=O)(=O)c4cccnc4)CC3)nc12` [MRJ-058C], the inhibition at 33 µM is below 15%.

Molecule `Cc1cccc2sc(NC(=O)C3CCN(S(=O)(=O)c4cnn(C)c4)CC3)nc12` [MRJ-058D] yielded an inhibition at 33 µM below 15%.

The molecule `Cc1ccc2nc(NC(=O)C3CCN(S(=O)(=O)c4ccc(F)cc4)CC3)sc2c1` [VU486] returned an inhibition at 33 µM below 15%.

In turn, `Cc1ccc2sc(NC(=O)C3CCN(S(=O)(=O)c4ccc(F)cc4)CC3)nc2c1C` [VU517] returned an inhibition at 33 µM below 15%.

The series is the same for the next values; noted with them: Table 3; 33 μM.
On to `Cc1ccc2nc(NC(=O)C3CCN(S(=O)(=O)c4ccc(F)cc4)CC3)sc2c1` [VU486], for which the “Remaining FAAH Activity (33 μM)” value amounted to 89%.

With `Cc1ccc2sc(NC(=O)C3CCN(S(=O)(=O)c4ccc(F)cc4)CC3)nc2c1C` [VU517], the “Remaining FAAH Activity (33 μM)” value was 90%.

The next series deals with RAW264.7 mouse macrophages. Nature of the series: Cytotoxicity (MTT) in RAW264.7 macrophages. In kind it is cell-based. The following applies: Table 2; Mϕ, 33 μM compound. The procedure: Cytotoxicity was measured using MTT as previously described except that the studies used 96-well plates with 100 μL of 0.3 mg/mL MTT solution was added after 24 h of treatment and then replaced after 3 h with 0.1 M HCl in isopropanol. See Aggarwal et al., J. Biol. Chem. 295(21): 7289-7300 (2020). Viability was expressed as percent absorbance at 560 nm relative to vehicle controls.
As for `Cc1cccc2sc(NC(=O)C3CCN(S(=O)(=O)c4ccc(F)c(Cl)c4)CC3)nc12` [MRJ-058B], the “33 μM Mϕ % Viability” value is reported as above 85%.

In the case of `Cc1cccc2sc(NC(=O)C3CCN(S(=O)(=O)c4cccnc4)CC3)nc12` [MRJ-058C], the “33 μM Mϕ % Viability” value is above 85%.

`Cc1cccc2sc(NC(=O)C3CCN(S(=O)(=O)c4cnn(C)c4)CC3)nc12` [MRJ-058D]: the “33 μM Mϕ % Viability” value is above 85%.

For the molecule `Cc1ccc2nc(NC(=O)C3CCN(S(=O)(=O)c4ccc(F)cc4)CC3)sc2c1` [VU486], the “33 μM Mϕ % Viability” value is given as above 85%.

For `Cc1ccc2sc(NC(=O)C3CCN(S(=O)(=O)c4ccc(F)cc4)CC3)nc2c1C` [VU517], the “33 μM Mϕ % Viability” value came out at 80%.

Still in this series, the particulars now being: Table 3; 33 μM.
In the case of `Cc1ccc2nc(NC(=O)C3CCN(S(=O)(=O)c4ccc(F)cc4)CC3)sc2c1` [VU486], the “% viability RAW 264.7 (33 μM)” value came out at 89%.

In the case of `Cc1ccc2sc(NC(=O)C3CCN(S(=O)(=O)c4ccc(F)cc4)CC3)nc2c1C` [VU517], the “% viability RAW 264.7 (33 μM)” value is given as 83%.

One may read the AC50 as the concentration giving half of the maximal activity seen. The Emax is the size of the effect at its maximum, as opposed to the concentration needed. Broadly, the EC50 is the concentration that produces a half-maximal response. By inhibition is commonly meant the drop in the measured response relative to a control, in per cent. A higher inhibition goes with a response far below the control.
